These results are taken from PMC10780244, “Antileishmanial Effect of 1,5- and 1,8-Substituted Fused Naphthyridines” (Molecules, 2023).

In the data set the test system is murine intestinal organoids. Put plainly: Drug tolerance in murine intestinal organoids (alamarBlue). The data set is classed as cell-based, mouse. The following applies: 50 µM, 72 h exposure. The method, then: Amastigotes obtained from mouse bone marrow cells were used to perform a first screening with the complete series of fused 1,5- and 1,8-naphthyridines. […] The toxicity of these selected compounds was assessed in non-infected splenic cells and the cytotoxic concentration (CC50) value obtained was used to calculate the selective index (SI). The oral tolerability of these same compounds was tested by calculating the viability of murine intestinal organoids exposed to two concentrations (50 and 25 µM).
Preparation and maintenance of murine intestinal organoids cultures were performed following the protocols published by Stemcell Technologies™ (https://www.stemcell.com/intestinal-epithelial-organoid-culture-with-intesticult-organoid-growth-medium-mouse-lp.html#protocols, accessed on 14 December 2023) with some modifications. Briefly, a section of small intestine from a Balb/c mouse was extracted and washed with ice-cold PBS. This section was cut into pieces around 2 mm each, washed 15–20 times with ice-cold PBS and incubated with Gentle Cell Dissociation Reagent (Stemcell Technologies™, Vancouver, BC, Canada) for 20 min. Then, the pieces were resuspended in ice-cold PBS with 0.1% BSA and left to settle at the bottom of the tube. The supernatant was collected and filtered through a 70 µm strainer. This process was repeated a total of four times obtaining different fractions. Cells from these fractions were centrifugated at 300× g for 5 min at 4 °C, washed with ice-cold PBS + 0.1% BSA and resuspended on 10 mL of ice-cold DMEM/F12 supplemented with glutamine and HEPES 15 mM (Gibco, Thermo Fisher Scientific, Waltham, MA, USA). After the evaluation under a microscope, the fraction with the highest crypt number but the lowest detritus presence was chosen. This fraction was centrifugated at 200× g for 5 min at 4 °C and the pellet was resuspended in a 1:1 mix of Geltrex GFR LDEV-free (Gibco, Fisher Scientific, Waltham, MA, USA) and IntestiCult™ Organoid Grow Medium Mouse (Stemcell Technologies™, Vancouver, BC, Canada). Fifty microliters of the suspension were pipetted into the middle of each well of a pre-heated 24-well plate and incubated at 37 °C for 10 min to allow polymerization of the matrix. In the end, 500 µL of IntestiCult™ Organoid Grow Medium was added to each well. The plates were incubated at 37 °C and 5% CO2, changing the culture medium every 48 h. Organoids were split 1 into 4 plates after 7 days.
Drug tolerance assays using murine intestinal organoids were performed in 384-well plates, following a protocol based on previous works and introducing several modifications. Briefly, organoids were prepared discarding the culture medium and adding 800 µL of Gentle Cell Dissociation Reagent (Stemcell Technologies™, Vancouver, BC, Canada) directly on top of matrix domes. After 1 min incubation at room temperature, the matrix was broken by pipetting, and the content of the wells was retrieved. The suspension was incubated at room temperature for 10 min on a rocking platform at 20 rpm, and centrifugated at 300× g for 5 min at 4 °C. The pellet was resuspended in 10 mL of ice-cold DMEM/F12 (Gibco, Fisher Scientific, Waltham, MA, USA) supplemented with glutamine and HEPES 15 mM and centrifugated again at 200× g for 5 min at 4 °C. Cells were resuspended in a 1:1 mix of Geltrex GFR LDEV-free and IntestiCult™ Organoid Grow Medium Mouse (Stemcell Technologies™, Vancouver, Canada). The final volume of the mix was calculated to achieve a 4-fold dilution in the final plate compared to the original plate. The mix was distributed in a 384-well plate (8 µL/well) which was incubated at 37 °C for 10 min. After that, 32 µL of IntestiCult™ Organoid Grow Medium Mouse (Stemcell Technologies™, Vancouver, Canada) were added to each well. The plate was incubated at 37 °C and 5% CO2 and after 4 days, mature organoids were exposed to drugs, alone or combined. For positive control, hydrogen peroxide at the final concentration of 0.15 % v/v was used. […]
On the technique in general: Alamar Blue is a resazurin reagent that responds to reducing activity.

Take `COc1ccc2c(n1)[C@@H](c1ccccc1)C1CN(S(=O)(=O)c3ccc(C)cc3)c3ccccc3C1N2` (some centres unmarked) [Compound 8c]: the “Intestinal Organoids 50 µM (%Viability)” value is above 100%.

As for `Fc1ccc2c(c1)C1Nc3ncccc3[C@@H](c3ccccc3)C1CO2` (some centres unmarked) [Compound 10b], the “Intestinal Organoids 50 µM (%Viability)” value was 90 ± 22%.
